Measured values taken from the supplement of paper PMC10307832.

Tests used:
Assay in all cases: relative viability (nuclei count vs DMSO), 5 days (fraction); higher = more cells survive
[1] = compound: CN(NC(=O)CC(=O)NN(C)C(=S)c1ccccc1)C(=S)c1ccccc1 [Elesclomol] + Cc1nc(NC(=O)N2CCC[C@H]2C(N)=O)sc1-c1ccnc(C(C)(C)C(F)(F)F)c1 [Alpelisib] (partner 2 µM)
Method in brief: (§1)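 A single step with final 0.05% Triton X-100, 1% formaldehyde and 1 ug/ml Hoechst fixed the cells and stained nuclei 5 days after treatment. Lung cancer cell lines in 1536-well plates had been treated by pin tool the day after seeding with one drug alone or a fixed anchor-drug dose plus five library-drug doses (not always all listed) in √10 steps, and nuclei were counted on 4× images. Relative viability is the ratio of nuclei in treated wells to nuclei in vehicle wells, taken as the median of duplicate plates.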

[2] = compound: CN(NC(=O)CC(=O)NN(C)C(=S)c1ccccc1)C(=S)c1ccccc1 [Elesclomol] + Cc1nc(Nc2ncc(C(=O)Nc3c(C)cccc3Cl)s2)cc(N2CCN(CCO)CC2)n1 [Dasatinib] (partner 0.075 µM)
Method in brief: as §1

[3] = compound: CN(NC(=O)CC(=O)NN(C)C(=S)c1ccccc1)C(=S)c1ccccc1 [Elesclomol] + N=C(N)NC(=N)NCCc1ccccc1 [Phenformin] (partner 250 µM)
Method in brief: as §1

[4] = compound: CN(NC(=O)CC(=O)NN(C)C(=S)c1ccccc1)C(=S)c1ccccc1 [Elesclomol] + CS(=O)(=O)CCNCc1ccc(-c2ccc3ncnc(Nc4ccc(OCc5cccc(F)c5)c(Cl)c4)c3c2)o1 [Lapatinib] (partner 2 µM)
Method in brief: as §1

[5] = compound: CN(NC(=O)CC(=O)NN(C)C(=S)c1ccccc1)C(=S)c1ccccc1 [Elesclomol] + CS(=O)(=O)N1CCN(Cc2cc3nc(-c4cccc5[nH]ncc45)nc(N4CCOCC4)c3s2)CC1 [Pictilisib] (partner 1 µM)
Method in brief: as §1

| Cell Line | relative viability ([1]; first compound 0.003162 µM) | relative viability ([1]; first compound 0.01 µM) | relative viability ([1]; first compound 0.03162 µM) | relative viability ([1]; first compound 0.1 µM) | relative viability ([2]; first compound 0.003162 µM) | relative viability ([2]; first compound 0.01 µM) | relative viability ([2]; first compound 0.03162 µM) | relative viability ([2]; first compound 0.1 µM) | relative viability ([3]; first compound 0.003162 µM) | relative viability ([3]; first compound 0.01 µM) | relative viability ([3]; first compound 0.03162 µM) | relative viability ([3]; first compound 0.1 µM) | relative viability ([4]; first compound 0.003162 µM) | relative viability ([4]; first compound 0.01 µM) | relative viability ([4]; first compound 0.03162 µM) | relative viability ([4]; first compound 0.1 µM) | relative viability ([5]; first compound 0.003162 µM) | relative viability ([5]; first compound 0.01 µM) | relative viability ([5]; first compound 0.03162 µM) | relative viability ([5]; first compound 0.1 µM) |
| --- | --- | --- | --- | --- | --- | --- | --- | --- | --- | --- | --- | --- | --- | --- | --- | --- | --- | --- | --- | --- |
| HCC-366 | 0.437 | 0.491 | 0.359 | 0.0118 | 0.596 | 0.624 | 0.542 | 0.029 | 0.611 | 0.562 | 0.436 | 0.0349 | 1.07 | 1.06 | 0.563 | 0.015 | 0.135 | 0.123 | 0.211 | 0.0502 |
| HCC-827 | 0.98 | 1.01 | 0.975 | 0.657 | 0.253 | 0.217 | 0.276 | 0.425 | 0.382 | 0.402 | 0.371 | 0.393 | 0.178 | 0.206 | 0.194 | 0.188 | 1.03 | 0.988 | 1.04 | 0.811 |
| HOP-62 | 1.05 | 0.712 | 0.797 | 0.113 | 0.678 | 0.638 | 0.458 | 0.213 | 0.629 | 0.508 | 0.353 | 0.176 | 1.17 | 0.872 | 0.811 | 0.251 | 0.694 | 0.269 | 0.582 | 0.239 |
| IA-LM | 0.789 | 0.164 | 0.076 | 0.027 |  |  |  |  |  |  |  |  | 0.658 | 0.201 | 0.121 | 0.0621 | 0.275 | 0.126 | 0.052 | 0.0237 |
| LC-2-ad | 0.85 | 0.495 | 0.111 | 0.116 | 0.492 | 0.196 | 0.202 | 0.179 | 0.514 | 0.271 | 0.269 | 0.331 | 0.876 | 0.334 | 0.111 | 0.0969 | 0.419 | 0.195 | 0.102 | 0.0937 |
| LCLC-97TM1 | 0.216 | 0.211 | 0.167 | 0.104 | 0.854 | 0.765 | 0.798 | 0.264 | 0.369 | 0.168 | 0.422 | 0.387 | 0.575 | 0.299 | 0.687 | 0.0906 | 0.173 | 0.118 | 0.115 | 0.0666 |
| LCLC-103H | 1.17 | 0.883 | 1.02 | 0.955 | 0.498 | 0.344 | 0.533 | 0.399 | 0.355 | 0.275 | 0.384 | 0.292 |  |  |  |  | 0.628 | 0.471 | 0.736 | 0.457 |
| LK-2 | 0.843 | 0.254 | 0.137 | 0.107 | 0.275 | 0.367 | 0.23 | 0.105 | 0.438 | 0.389 | 0.353 | 0.141 | 0.698 | 0.22 | 0.17 | 0.0799 | 0.418 | 0.177 | 0.149 | 0.117 |
| LOU-NH91 | 0.717 | 0.643 | 0.513 | 0.498 | 0.546 | 0.52 | 0.428 | 0.432 | 0.754 | 0.571 | 0.419 | 0.439 | 0.733 | 0.669 | 0.574 | 0.478 | 0.447 | 0.511 | 0.45 | 0.424 |
| LU99A | 0.479 |  | 0.538 | 0.095 | 0.569 | 0.39 | 0.512 | 0.185 | 0.804 | 0.561 | 0.901 | 0.219 | 1.02 |  | 0.921 | 0.135 | 0.316 |  | 0.325 | 0.137 |
| LXF-289 | 1.05 | 0.977 | 0.979 | 0.686 | 0.243 | 0.176 | 0.202 | 0.113 | 0.516 | 0.406 | 0.487 | 0.467 | 0.925 | 0.881 | 0.876 | 0.677 | 0.781 | 0.709 | 0.749 | 0.501 |
| NCI-H23 | 0.662 |  | 0.491 | 0.122 | 0.823 | 0.725 | 0.743 | 0.171 | 0.822 | 0.671 | 0.77 | 0.506 | 1.12 |  | 0.799 | 0.139 | 0.536 |  | 0.366 | 0.147 |
| NCI-H322M | 0.933 |  | 0.645 | 0.173 | 0.251 | 0.206 | 0.123 | 0.0962 | 0.769 | 0.32 | 0.47 | 0.0999 | 0.563 |  | 0.624 | 0.399 | 0.478 |  | 0.519 | 0.382 |
| NCI-H358 | 0.43 | 0.163 | 0.166 | 0.142 | 0.0973 | 0.101 | 0.0734 | 0.0654 | 0.305 | 0.158 | 0.148 | 0.166 | 0.272 | 0.244 | 0.209 | 0.184 | 0.24 | 0.196 | 0.191 | 0.163 |
| NCI-H441 | 0.701 | 0.624 | 0.233 | 0.0722 | 0.547 | 0.656 | 0.451 | 0.0877 | 0.788 | 0.838 | 0.604 | 0.45 |  |  |  |  | 0.424 | 0.364 | 0.183 | 0.0824 |
| NCI-H522 |  |  |  |  | 0.842 | 0.812 | 0.868 | 0.454 | 0.681 | 0.736 | 0.668 | 0.549 |  |  |  |  |  |  |  |  |
| NCI-H1650 |  |  |  |  | 0.21 | 0.17 | 0.156 | 0.154 | 0.315 | 0.211 | 0.173 | 0.133 | 0.38 | 0.277 | 0.184 | 0.17 | 0.185 | 0.177 | 0.18 | 0.15 |
| NCI-H1703 | 0.225 | 0.135 | 0.0986 | 0.0874 |  |  |  |  |  |  |  |  | 0.262 | 0.216 | 0.157 | 0.129 | 0.198 | 0.106 | 0.133 | 0.128 |
| SW 900 |  |  |  |  | 0.626 | 0.41 | 0.144 | 0.196 | 0.521 | 0.337 | 0.178 | 0.0792 |  |  |  |  |  |  |  |  |
